In the supplement of paper PMC10307832:

Experiments:
Experiment in all cases: relative viability (nuclei count vs DMSO), 5 days (fraction); higher = more cells survive
MK-2206 + Phenformin = compound: NC1(c2ccc(-c3nc4ccn5c(=O)[nH]nc5c4cc3-c3ccccc3)cc2)CCC1 [MK-2206] + N=C(N)NC(=N)NCCc1ccccc1 [Phenformin] (partner 250 µM)
Procedure, shortened: (§1)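 Lung cancer cell lines, seeded in 1536-well plates, were treated the following day by pin tool with a single drug or with five library-drug doses (not always all listed) in √10 steps on top of a fixed anchor-drug dose. Cells were fixed and nuclei stained in one step after 5 days, and nuclei were counted. Relative viability is the nuclei count for treated wells divided by that for vehicle wells, reported as medians of duplicate plates.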

Pictilisib + Pemetrexed = compound: CS(=O)(=O)N1CCN(Cc2cc3nc(-c4cccc5[nH]ncc45)nc(N4CCOCC4)c3s2)CC1 [Pictilisib] + Nc1nc2[nH]cc(CCc3ccc(C(=O)N[C@@H](CCC(=O)O)C(=O)O)cc3)c2c(=O)[nH]1 [Pemetrexed] (partner 0.2 µM)
Procedure, shortened: as §1

MK-2206 + OSI-027 = compound: NC1(c2ccc(-c3nc4ccn5c(=O)[nH]nc5c4cc3-c3ccccc3)cc2)CCC1 [MK-2206] + COc1cccc2cc(-c3nc([C@H]4CC[C@H](C(=O)O)CC4)n4ncnc(N)c34)[nH]c12 [OSI-027] (partner 0.5 µM)
Procedure, shortened: as §1

Pictilisib + Linsitinib = compound: CS(=O)(=O)N1CCN(Cc2cc3nc(-c4cccc5[nH]ncc45)nc(N4CCOCC4)c3s2)CC1 [Pictilisib] + C[C@]1(O)C[C@@H](c2nc(-c3ccc4ccc(-c5ccccc5)nc4c3)c3c(N)nccn32)C1 [Linsitinib] (partner 1 µM)
Procedure, shortened: as §1

Pictilisib + Luminespib = compound: CS(=O)(=O)N1CCN(Cc2cc3nc(-c4cccc5[nH]ncc45)nc(N4CCOCC4)c3s2)CC1 [Pictilisib] + CCNC(=O)c1noc(-c2cc(C(C)C)c(O)cc2O)c1-c1ccc(CN2CCOCC2)cc1 [Luminespib] (partner 0.01 µM)
Procedure, shortened: as §1

Cell Line	relative viability (MK-2206 + Phenformin; first compound 0.01 µM)	relative viability (MK-2206 + Phenformin; first compound 0.03162 µM)	relative viability (MK-2206 + Phenformin; first compound 0.3162 µM)	relative viability (MK-2206 + Phenformin; first compound 1 µM)	relative viability (Pictilisib + Pemetrexed; first compound 0.02 µM)	relative viability (Pictilisib + Pemetrexed; first compound 0.06325 µM)	relative viability (Pictilisib + Pemetrexed; first compound 0.6325 µM)	relative viability (Pictilisib + Pemetrexed; first compound 2 µM)	relative viability (MK-2206 + OSI-027; first compound 0.01 µM)	relative viability (MK-2206 + OSI-027; first compound 0.03162 µM)	relative viability (MK-2206 + OSI-027; first compound 0.3162 µM)	relative viability (MK-2206 + OSI-027; first compound 1 µM)	relative viability (Pictilisib + Linsitinib; first compound 0.02 µM)	relative viability (Pictilisib + Linsitinib; first compound 0.06325 µM)	relative viability (Pictilisib + Linsitinib; first compound 0.6325 µM)	relative viability (Pictilisib + Linsitinib; first compound 2 µM)	relative viability (Pictilisib + Luminespib; first compound 0.02 µM)	relative viability (Pictilisib + Luminespib; first compound 0.06325 µM)	relative viability (Pictilisib + Luminespib; first compound 0.6325 µM)	relative viability (Pictilisib + Luminespib; first compound 2 µM)
NCI-H2126	0.515	0.501	0.446	0.426	0.692	0.661	0.518	0.379	0.709	0.683	0.567	0.48	0.692	0.692	0.609	0.5	0.847	0.852	0.646	0.421
NCI-H2228	0.332	0.326	0.214	0.219	0.316	0.252	0.334	0.119	0.69	0.446	0.271	0.214	0.533	0.637	0.31	0.184	0.12	0.184	0.129	0.121
NCI-H2347	0.443	0.345	0.51	0.224	0.459	0.455	0.391	0.367	0.384	0.375	0.413	0.277	1.02	1.08	1.1	0.933	0.444	0.518	0.423	0.264
NCI-H2405	0.392	0.402	0.36	0.321	1.3	1.01	0.778	0.416	0.661	0.641	0.56	0.452	1.05	0.96	0.7	0.5	0.694	0.611	0.416	0.235
NCI-H3122	0.367	0.414	0.395	0.353	0.189	0.196	0.192	0.172	0.875	0.963	0.424	0.163	0.988	0.963	0.681	0.354	0.0804	0.107	0.0795	0.0927
PC-3 [JPC-3]	0.48	0.486	0.475	0.466	1.22	1.24	0.872	0.579	0.825	0.749	0.6	0.641	0.985	0.945	0.97	0.893	0.604	0.775	0.509	0.462
PC-14	0.493	0.663	0.584	0.525	0.137	0.133	0.136	0.0862	0.746	0.911	0.597	0.661	0.934	0.937	0.91	0.588	0.162	0.151	0.141	0.123
RERF-LC-KJ	0.413	0.423	0.408	0.333	0.459	0.478	0.448	0.404	0.647	0.531	0.417	0.381	0.823	0.881	0.818	0.618	1.23	1.29	1	0.855
SK-LU-1	0.536	0.602	0.476	0.503	0.967	1.07	0.835	0.624	0.349	0.325	0.224	0.325	1.21	1.13	0.987	0.628	0.227	0.193	0.168	0.178
SK-MES-1	0.65	0.72	0.609	0.57	0.941	0.948	0.879	0.391	0.62	0.502	0.452	0.504	1.02	1.01	0.836	0.456	0.748	0.702	0.279	0.219
SW 1573	0.419	0.457	0.27	0.237	0.845	0.91	0.52	0.424	0.628	0.491	0.298	0.423	0.844	0.709	0.618	0.41	0.185	0.196	0.187	0.189
